The text below walks through data of patent US8067015B2, “Methods and compositions for the treatment and prevention of Staphylococcus and other bacterial infections” (priority 1997, dated 2011).

What all share (assay type): in vivo
In test [1] the test system is S. epidermidis GISE strain. The test can be described thus: Rat subcutaneous Dacron graft infection model, GISE strain. Particulars: rats; for Bacterial concentration, GISE: 2×10^7 bacteria, explanted day 7, mean ± SD. The method, then: (§1) Rats (Wistar adult males (300-350 g), n=15/experimental group) were anaesthetized, hair on their back shaved and the skin cleansed with 10% povidone-iodine solution. A subcutaneous pocket was made on the side of the median line by a 1.5 cm incision. Aseptically, 1 cm^2 sterile collagen-sealed Dacron graft (Albograft™, Sorin Biomedica Cardio, S.p.A., Saluggi VC, Italy) was implanted into the pocket. […] Pockets were closed by skin clips and 1 ml sterile saline solution with or without 2×10^7 bacteria was inoculated onto the graft surface using a tuberculin syringe to create a subcutaneous fluid-filled pocket. Some of the animals that had grafts soaked only with RIP or saline were injected intraperitoneally with antibiotics (cefazolin 30 mg/kg, imipenem 30 mg/kg, teicoplanin 10 mg/kg, levofloxacin 10 mg/kg). Grafts were explanted 7 days following implantation.
(§2) The explanted grafts were placed in sterile tubes, washed in sterile saline solution, placed in tubes containing 10 ml of phosphate-buffered saline solution and sonicated for 5 min to remove the adherent bacteria from the grafts. Quantitation of viable bacteria was performed by culturing serial 10-fold dilutions (0.1 ml) of the bacterial suspension on blood agar plates. All plates were incubated at 37° C. for 48 hr and evaluated for the presence of the strain. Bacteria were quantitated by counting the number of colony forming unites (CFU) per plate. To determine if bacteria were efficiently removed from the graft, washed and sonicated grafts were observed under a Nikon Eclipse E 600 optical microscope (Nikon Y-THS, Japan).
(§3) Quantitative culture results of the in vivo experiments were presented as mean+SD of the mean. Comparisons of the results were performed by the analysis of variance (ANOVA) on the log-transformed data. Statistical analysis was performed for in vitro adhesion assays using Student's t-Test by Microsoft Excel (Microsoft, Wash.). Significance was accepted when the P value was <0.05.
(§4) To test if RIP can prevent graft-associated infections, Dacron grafts were coated with or without RIP, and with or without various types of antibiotics (for local prophylaxis experiments). Coated grafts were implanted in rats, bacteria injected into the implants, implants removed after a week, and bacterial load determined. Alternatively, Dacron grafts were first coated with RIP, bacteria injected, and antibiotics were administered by the intraperitoneal route (for parenteral prophylaxis experiments). As a negative control, grafts were implanted without local or parenteral RIP/antibiotics prophylaxis and no bacteria were injected. As a positive control, grafts were implanted, bacteria were injected, but no RIP/antibiotics prophylaxis was given.
(§5) Animals (15/group) received a Dacron-graft implanted in a subcutaneous pocket. Graft was subsequently infected with either S. epidermidis (tested on MSSE, MRSE and GISE) or with S. aureus (tested on MSSA, MRSA and GISA). […]

Test [2] relates to S. epidermidis MRSE strain. The test can be described thus: Rat subcutaneous Dacron graft infection model, MRSE strain. Particulars: rats; for Bacterial concentration, MRSE: 2×10^7 bacteria, explanted day 7, mean ± SD. The method, then:
as §1, §2, §3, §4
Animals (15/group) received a Dacron-graft implanted in a subcutaneous pocket. Graft was subsequently infected with either S. epidermidis (tested on MSSE, MRSE and GISE) or with S. aureus (tested on MSSA, MRSA and GISA). The Dacron-graft prior to implantation was soaked in saline with or without 20 mg/l of RIP and some animals received […] of RIP i.p. as a prophylaxis treatment.

In test [3] the test system is S. epidermidis MSSE strain. As to the kind of experiment: Rat subcutaneous Dacron graft infection model, MSSE strain. Particulars: rats; for Bacterial concentration, MSSE: 2×10^7 bacteria, explanted day 7, mean ± SD. As for the experimental part:
as §1, §2, §3, §4, §5

Setting [4] is: B. Parenteral prophylaxis: antibiotic intraperitoneally (cefazolin 30, imipenem 30, teicoplanin 10, levofloxacin 10 mg/kg), RIP as 10 mg/l graft soak.
Where [5] appears, read: A. Local prophylaxis: graft soaked 20 min in RIP 10 mg/l and/or antibiotic (mupirocin 100, quinupristin-dalfopristin 50, levofloxacin 30, rifampin 5 mg/l).
Setting [6] is: peptide-soaked/coated Dacron graft (RIP 10 mg/l), no antibiotic, day 7.

For the compound `Cc1nnc(SCC2=C(C(=O)O)N3C(=O)[C@@H](NC(=O)Cn4cnnn4)[C@H]3SC2)s1` [Cefazolin, cefazolin], in test [1] (setting [4]), the “Bacterial concentration, GISE” value is listed as 590 ± 200 ×10^4 CFU/ml. Also, the “Bacterial concentration, MRSE” value in test [2] (setting [4]) is 370 ± 120 ×10^4 CFU/ml. The “Bacterial concentration, MSSE” value in test [3] (setting [4]) is 0.64 ± 0.19 ×10^4 CFU/ml.

For the compound `C[C@@H](O)[C@H]1C(=O)N2C(C(=O)O)=C(SCCN=CN)C[C@H]12` [Imipenem, imipenem], in test [1] (setting [4]), the “Bacterial concentration, GISE” value was 89 ± 36 ×10^4 CFU/ml. Besides, the “Bacterial concentration, MRSE” value in test [2] (setting [4]) is 4 ± 1.8 ×10^4 CFU/ml. In addition, the “Bacterial concentration, MSSE” value in test [3] (setting [4]) was 0.73 ± 0.2 ×10^4 CFU/ml.

Take `C[C@H]1COc2c(N3CCN(C)CC3)c(F)cc3c(=O)c(C(=O)O)cn1c23` [Levofloxacin, levofloxacin]: the entries for the “Bacterial concentration, GISE” value in test [1] (setting [5]) and in test [1] (setting [4]) were 280 ± 40 ×10^4 CFU/ml and 480 ± 170 ×10^4 CFU/ml, respectively. Also, the results for the “Bacterial concentration, MRSE” value in test [2] (setting [5]) and in test [2] (setting [4]) were 6.8 ± 2.5 ×10^4 CFU/ml and 3.9 ± 1.4 ×10^4 CFU/ml, respectively. Besides, the “Bacterial concentration, MSSE” value in test [3] (setting [5]) is recorded as 4.2 ± 2.1 ×10^4 CFU/ml; in test [3] (setting [4]) it was 3.5 ± 1.1 ×10^4 CFU/ml.

As to `C/C(=C\C(=O)OCCCCCCCCC(=O)O)C[C@@H]1OC[C@H](C[C@@H]2O[C@H]2[C@@H](C)[C@H](C)O)[C@@H](O)[C@H]1O` [Mupirocin, mupirocin], the “Bacterial concentration, GISE” value in test [1] (setting [5]) is listed as 0.07 ± 0.018 ×10^4 CFU/ml. Also, in test [2] (setting [5]), the “Bacterial concentration, MRSE” value was 0.035 ± 0.014 ×10^4 CFU/ml. Besides, the “Bacterial concentration, MSSE” value in test [3] (setting [5]) is listed as 0.064 ± 0.015 ×10^4 CFU/ml.

As to `CO[C@H]1/C=C/O[C@@]2(C)Oc3c(C)c(O)c4c(O)c(c(/C=N/N5CCN(C)CC5)c(O)c4c3C2=O)NC(=O)/C(C)=C\C=C\[C@H](C)[C@H](O)[C@@H](C)[C@@H](O)[C@@H](C)[C@H](OC(C)=O)[C@@H]1C` [Rifampicin, rifampin], the “Bacterial concentration, GISE” value in test [1] (setting [5]) is on record as 84 ± 27 ×10^4 CFU/ml. In addition, the “Bacterial concentration, MRSE” value in test [2] (setting [5]) was 0.8 ± 0.37 ×10^4 CFU/ml. The “Bacterial concentration, MSSE” value in test [3] (setting [5]) is 0.73 ± 0.2 ×10^4 CFU/ml.

Turning to YKPETNF [inactive RIP peptide analogue], the “Quantitative culture results of explanted graft, GISE strain” value in test [1] (setting [6]) was 6.52×10^6±3×10^6 CFU/ml. The “Quantitative culture results of explanted graft, MRSE strain” value in test [2] (setting [6]) is given as 7.08×10^6±2.1×10^6 CFU/ml. In addition, the “Quantitative culture results of explanted graft, MSSE strain” value in test [3] (setting [6]) is reported as 5.4×10^6±8×10^5 CFU/ml.

As to quinupristin-dalfopristin, the “Bacterial concentration, GISE” value in test [1] (setting [5]) is listed as 0.0069 ± 0.0013 ×10^4 CFU/ml. The “Bacterial concentration, MRSE” value in test [2] (setting [5]) is 0.0048 ± 0.001 ×10^4 CFU/ml. For the same compound, the “Bacterial concentration, MSSE” value in test [3] (setting [5]) is given as 0.0026 ± 0.0003 ×10^4 CFU/ml.

Take teicoplanin: the “Bacterial concentration, GISE” value in test [1] (setting [4]) was 57 ± 24 ×10^4 CFU/ml. The “Bacterial concentration, MRSE” value in test [2] (setting [4]) is listed as 0.072 ± 0.008 ×10^4 CFU/ml. In test [3] (setting [4]), the “Bacterial concentration, MSSE” value is 0.0084 ± 0.0004 ×10^4 CFU/ml.
